{
  "source": "paper PMC6934184",
  "about": "“Selective DNA-PKcs inhibition extends the therapeutic index of localized radiotherapy and chemotherapy” (The Journal of Clinical Investigation, 2019)",
  "biological_target": "T1, PHKG2 (Homo sapiens, UniProt P15735)",
  "T1 construct": "purchased Thermo Fisher Scientific (Life Technologies) SelectScreen",
  "T1 sequence (P15735 whole entry)": "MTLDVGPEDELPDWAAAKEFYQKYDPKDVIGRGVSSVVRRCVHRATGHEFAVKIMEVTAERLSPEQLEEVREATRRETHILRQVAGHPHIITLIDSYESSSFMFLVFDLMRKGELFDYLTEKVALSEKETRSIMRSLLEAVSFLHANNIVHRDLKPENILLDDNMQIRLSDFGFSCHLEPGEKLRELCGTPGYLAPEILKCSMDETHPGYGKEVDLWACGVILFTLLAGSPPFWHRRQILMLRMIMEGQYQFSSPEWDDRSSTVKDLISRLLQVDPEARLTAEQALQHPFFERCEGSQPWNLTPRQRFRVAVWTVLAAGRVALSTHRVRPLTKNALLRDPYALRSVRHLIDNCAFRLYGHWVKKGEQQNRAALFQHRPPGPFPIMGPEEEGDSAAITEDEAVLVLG",
  "assay": "SelectScreen Z'LYTE",
  "assay_type": "biochemical",
  "in_short": "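SelectScreen broad panel; activity (Z'LYTE, Adapta) plus binding formats. ATP: Km app for CSF1R Z'LYTE; 10 for CAMK1 Adapta. Readout = % per kinase.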",
  "data": [
    {"smiles": "CN(C(=O)CN1CCOCC1)c1ccc2sc3c(-c4cccc5c(=O)cc(N6CC7CCC(C6)O7)oc45)cccc3c2c1", "note": "[NU5455]", "values": [
      {"measurement": "inhibition at 1 µM", "value": -3.6, "unit": "%"}
    ]}
  ]
}
